# From US7067521B2, “1-[alkyl], 1-[(heteroaryl)alkyl] and 1-[(aryl)alkyl]-7pyridinyl-imidazo[1,2-alpha]pyrimidin-5(1H)-one derivatives” (sanofi-aventis, priority 2000, dated 2006)
# Structures can show the parent of a compound that is named as a salt.
row,Compound,melting point
1,"O=c1cc(-c2ccncc2)nc2n(CCCCc3ccccc3)ccn12 (as salt: hydrochloride) [Compound 14, 1-[4-(phenyl)butyl]-7-pyridin-4-ylimidazo[1,2-a]pyrimidin-5(1H)-one]",206 to 208 °C
2,"O=c1cc(-c2cccnc2)nc2n(CCCc3ccccc3)ccn12 (as salt: hydrochloride) [Compound 15, 1-[3-(phenyl)propyl]-7-pyridin-3-ylimidazo[1,2-a]pyrimidin-5(1H)-one]",184 to 185 °C
3,"O=C(CCn1ccn2c(=O)cc(-c3ccncc3)nc12)c1ccccc1 (as salt: hydrochloride) [Compound 23, 1-(3-phenyl-3-oxo-propyl)-7-pyridin-4-ylimidazo[1,2-a]pyrimidin-5(1H)-one]",208 to 211 °C
4,"O=c1cc(-c2ccncc2)nc2n(CC[C@H](O)C(F)(F)F)ccn12 [Compound 17, (S)-1-(4,4,4-trifluoro-3-hydroxybutyl)-7-pyridin-4-ylimidazo[1,2-a]pyrimidin-5(1H)-one]",220 to 222 °C
5,"O=c1cc(-c2ccncc2)nc2n(CC=CC(F)(F)F)ccn12 [Compound 18, 1-(4,4,4-trifluorobut-2-enyl)-7-pyridin-4-ylimidazo[1,2-a]pyrimidin-5(1H)-one]",187 to 188 °C
6,"O=c1cc(-c2ccncc2)nc2n(C=CCC(F)(F)F)ccn12 [Compound 20, 1-(4,4,4-trifluorobut-1-enyl)-7-pyridin-4-ylimidazo[1,2-a]pyrimidin-5(1H)-one]",221 to 222 °C
